Results from PubChem BioAssay AID328 (DTP/NCI, 2004).
“And” between values parts separate entries of the source, which are not always exact repeats. Identical values can stand only once. Inconclusive results and toxic doses are left out. The calls were made as follows: active = survival T/C of 150% or more; inactive = T/C below 125% in these data.

System: BDF1 mice, P388 leukemia ip, median survival T/C
Assay: NCI In Vivo Anticancer Drug Screen. Data for tumor model P388 Leukemia (intraperitoneal) in B6D2F1 (BDF1) mice
Conditions: endpoint: median survival time, higher = longer survival
How it was run: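 Read-out is survival of treated animals expressed relative to the vehicle group, as a T/C ratio.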

[1] = dose: 50.0 mg/kg/injection, schedule: Q01DX009 (ip), vehicle: saline with Tween-80
[2] = dose: 100.0 mg/kg/injection, schedule: Q01DX009 (ip), vehicle: saline with Tween-80
[3] = dose: 12.5 mg/kg/injection, schedule: Q01DX009 (ip), vehicle: saline with Tween-80
[4] = dose: 25.0 mg/kg/injection, schedule: Q01DX009 (ip), vehicle: saline with Tween-80
[5] = dose: 12.5 mg/kg/injection, schedule: Q04DX003 (ip), vehicle: saline
[6] = dose: 25.0 mg/kg/injection, schedule: Q01DX009 (ip), vehicle: saline
[7] = dose: 25.0 mg/kg/injection, schedule: Q04DX003 (ip), vehicle: saline
[8] = dose: 50.0 mg/kg/injection, schedule: Q01DX009 (ip), vehicle: saline
[9] = dose: 100.0 mg/kg/injection, schedule: Q04DX003 (ip), vehicle: saline with Tween-80
[10] = dose: 200.0 mg/kg/injection, schedule: Q04DX003 (ip), vehicle: saline with Tween-80
[11] = dose: 400.0 mg/kg/injection, schedule: Q04DX003 (ip), vehicle: saline with Tween-80
[12] = dose: 200.0 mg/kg/injection, schedule: Q01DX009 (ip), vehicle: saline with Tween-80
[13] = dose: 100.0 mg/kg/injection, schedule: Q04DX003 (ip), vehicle: Klucel (hydroxypropylcellulose) (HPC)
[14] = dose: 200.0 mg/kg/injection, schedule: Q04DX003 (ip), vehicle: Klucel (hydroxypropylcellulose) (HPC)
[15] = dose: 400.0 mg/kg/injection, schedule: Q04DX003 (ip), vehicle: Klucel (hydroxypropylcellulose) (HPC)
[16] = dose: 100.0 mg/kg/injection, schedule: Q01DX009 (ip), vehicle: saline

Measured: T/C

O=c1nc(Oc2ccccc2)nc2ccc(Cl)nn12
inactive: [1] 105 % of control | [2] 116 % of control

O=[N+]([O-])c1ccc(Sc2ccccc2)c2nonc12
inactive: [3] 88 % of control | [4] 107 % of control | [1] 116 % of control

Cc1noc(N)c1N
inactive: dose: 100.0 mg/kg/injection, schedule: Q01DX009 (ip), vehicle: water 110 % of control | dose: 100.0 mg/kg/injection, schedule: Q04DX003 (ip), vehicle: water 109 % of control | dose: 200.0 mg/kg/injection, schedule: Q01DX009 (ip), vehicle: water 110 % of control and 117 % of control | dose: 200.0 mg/kg/injection, schedule: Q04DX003 (ip), vehicle: water 100 % of control | dose: 400.0 mg/kg/injection, schedule: Q01DX009 (ip), vehicle: water 106 % of control | dose: 400.0 mg/kg/injection, schedule: Q04DX003 (ip), vehicle: water 100 % of control | dose: 600.0 mg/kg/injection, schedule: Q01DX009 (ip), vehicle: water 122 % of control

CCCCCCCCCCCCCC(C)NCc1ccccc1 (centres undefined)
inactive: dose: 3.13 mg/kg/injection, schedule: Q01DX009 (ip), vehicle: saline with Tween-80 95 % of control | dose: 6.25 mg/kg/injection, schedule: Q01DX009 (ip), vehicle: saline with Tween-80 100 % of control | [3] 100 % of control

CN1C2CCC1CN(Cc1ccccc1)C2
inactive: dose: 12.5 mg/kg/injection, schedule: Q01DX009 (ip), vehicle: saline 95 % of control | [5] 88 % of control | [6] 95 % of control | [7] 100 % of control | [8] 91 % of control | dose: 50.0 mg/kg/injection, schedule: Q04DX003 (ip), vehicle: saline 100 % of control

CC(=O)Nc1cc(C)ccc1O
inactive: [9] 100 % of control | [10] 104 % of control | [11] 90 % of control

O=C(O)C1C(C(=O)O)C2(Cl)C(Cl)=C(Cl)C1(Cl)C2(Cl)Cl.[Co] (centres undefined)
inactive: dose: 25.0 mg/kg/injection, schedule: Q01DX009 (ip), vehicle: Klucel (hydroxypropylcellulose) (HPC) 100 % of control | dose: 50.0 mg/kg/injection, schedule: Q01DX009 (ip), vehicle: Klucel (hydroxypropylcellulose) (HPC) 100 % of control

CCCS(=O)(=O)N(CC(=O)O)Cc1ccccc1
inactive: dose: 25.0 mg/kg/injection, schedule: Q04DX003 (ip), vehicle: other 106 % of control | dose: 50.0 mg/kg/injection, schedule: Q04DX003 (ip), vehicle: other 104 % of control | dose: 100.0 mg/kg/injection, schedule: Q04DX003 (ip), vehicle: other 100 % of control | dose: 200.0 mg/kg/injection, schedule: Q04DX003 (ip), vehicle: other 106 % of control | dose: 400.0 mg/kg/injection, schedule: Q04DX003 (ip), vehicle: other 106 % of control

S=C(S)Nc1cccc2ccccc12
inactive: [2] 100 % of control | [9] 90 % of control | [12] 100 % of control | [10] 109 % of control | dose: 400.0 mg/kg/injection, schedule: Q01DX009 (ip), vehicle: saline with Tween-80 105 % of control | [11] 95 % of control

CC1(C2CC2)NC(=O)NC1=O (centres undefined)
inactive: dose: 75.0 mg/kg/injection, schedule: Q01DX009 (ip), vehicle: saline 113 % of control | dose: 100.0 mg/kg/injection, schedule: Q01DX001 (ip), vehicle: saline 113 % of control | dose: 150.0 mg/kg/injection, schedule: Q01DX009 (ip), vehicle: saline 104 % of control | dose: 200.0 mg/kg/injection, schedule: Q01DX001 (ip), vehicle: saline 104 % of control | dose: 300.0 mg/kg/injection, schedule: Q01DX009 (ip), vehicle: saline 100 % of control | dose: 400.0 mg/kg/injection, schedule: Q01DX001 (ip), vehicle: saline 104 % of control

CCCCN(C)N=Nc1ccccc1C(N)=O
inactive: dose: 50.0 mg/kg/injection, schedule: Q04DX003 (ip), vehicle: Klucel (hydroxypropylcellulose) (HPC) 100 % of control | [2] 120 % of control | [13] 97 % of control | [14] 109 % of control | [15] 103 % of control

COc1ccc(OC)c([N+](=O)[O-])c1
inactive: [13] 100 % of control | dose: 200.0 mg/kg/injection, schedule: Q01DX009 (ip), vehicle: Klucel (hydroxypropylcellulose) (HPC) 95 % of control | [14] 95 % of control | dose: 400.0 mg/kg/injection, schedule: Q01DX009 (ip), vehicle: Klucel (hydroxypropylcellulose) (HPC) 90 % of control | [15] 100 % of control

CC(N)C(=O)O (centres undefined)
inactive: [16] 91 % of control | dose: 100.0 mg/kg/injection, schedule: Q04DX003 (ip), vehicle: saline 88 % of control | dose: 200.0 mg/kg/injection, schedule: Q01DX009 (ip), vehicle: saline 108 % of control | dose: 200.0 mg/kg/injection, schedule: Q04DX003 (ip), vehicle: saline 100 % of control | dose: 400.0 mg/kg/injection, schedule: Q01DX009 (ip), vehicle: saline 100 % of control

COC(=O)c1cc(O)c(O)c(OC)c1
inactive: [4] 111 % of control | [1] 101 % of control | [2] 86 % of control | [12] 95 % of control

CCC(C)NCCNCCNC(C)CC (centres undefined)
inactive: dose: 6.25 mg/kg/injection, schedule: Q04DX003 (ip), vehicle: saline 95 % of control | [5] 95 % of control | [7] 104 % of control

CN(C)c1ccc(/C=C\c2ccnc3ccc(-c4ccccc4)cc23)cc1
inactive: [1] 94 % of control | [2] 94 % of control | [12] 94 % of control

COc1cc(C(=O)OC2c3ccccc3CCC2N(C)C)cc(OC)c1OC (centres undefined)
inactive: [6] 102 % of control | [8] 103 % of control and 107 % of control | [16] 102 % of control

CC(C)(C)C(CO)CO
inactive: [1] 93 % of control | [2] 100 % of control | [12] 100 % of control

CC(C)c1ccc(N2C(N)=NC(N)=NC2(C)C)cc1
inactive: dose: 12.5 mg/kg/injection, schedule: Q01DX005 (ip), vehicle: Klucel (hydroxypropylcellulose) (HPC) 110 % of control | dose: 25.0 mg/kg/injection, schedule: Q01DX005 (ip), vehicle: Klucel (hydroxypropylcellulose) (HPC) 108 % of control | dose: 50.0 mg/kg/injection, schedule: Q01DX005 (ip), vehicle: Klucel (hydroxypropylcellulose) (HPC) 105 % of control

[Na+]
inactive: dose: 3.0 mg/kg/injection, schedule: Q01DX009 (ip), vehicle: saline 104 % of control | dose: 6.0 mg/kg/injection, schedule: Q01DX009 (ip), vehicle: saline 95 % of control | dose: 12.0 mg/kg/injection, schedule: Q01DX009 (ip), vehicle: saline 104 % of control | [5] 109 % of control | [7] 95 % of control

O=[N+]([O-])c1ccc(/C=C/c2nccs2)o1
inactive: [13] 100 % of control | [14] 103 % of control

CCOC(=O)NC1CC2(C=CN1C(=O)OCC)CCCCC2 (centres undefined)
inactive: dose: 37.5 mg/kg/injection, schedule: Q04DX003 (ip), vehicle: Klucel (hydroxypropylcellulose) (HPC) 113 % of control | dose: 75.0 mg/kg/injection, schedule: Q04DX003 (ip), vehicle: Klucel (hydroxypropylcellulose) (HPC) 118 % of control | dose: 150.0 mg/kg/injection, schedule: Q04DX003 (ip), vehicle: Klucel (hydroxypropylcellulose) (HPC) 112 % of control

Nc1nc(SCc2cccc(Br)c2)c2ncn(C3OC(CO)C(O)C3O)c2n1 (centres undefined)
inactive: [9] 104 % of control | [10] 122 % of control

S=P(NCCS)(N1CC1)N1CC1
inactive: [4] 95 % of control | [1] 122 % of control | [2] 109 % of control

NNC(=O)Cc1ccccc1
inactive: dose: 25.0 mg/kg/injection, schedule: Q04DX003 (ip), vehicle: saline sonified 110 % of control | dose: 50.0 mg/kg/injection, schedule: Q04DX003 (ip), vehicle: saline sonified 105 % of control | dose: 100.0 mg/kg/injection, schedule: Q04DX003 (ip), vehicle: saline sonified 110 % of control

COc1cc2c(cc1OC)C(c1c(-c3c(Cl)cccc3Cl)noc1C)=NCC2
inactive: [1] 99 % of control | [2] 92 % of control | [12] 106 % of control

O=C(CN1CCOCC1)Nc1cccc(C(F)(F)F)c1
inactive: [9] 86 % of control | [10] 86 % of control | [11] 109 % of control

O=C(NC12CC3CC(CC(C3)C1)C2)C(F)(F)F
inactive: [1] 98 % of control | [2] 105 % of control | [12] 102 % of control
